Consider 7 molecules from PubChem BioAssay (NCI).

The structures appear in SMILES notation.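 Tested at 5 concentrations; 48 h exposure; 96-well plates; endpoints linearly interpolated, else capped at highest concentration. At the GI50, growth is halved. TGI is the concentration that stops growth completely.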

Test systems include HS 578T breast; U251 CNS; ACHN renal; SR leukemia; IGROV1 ovarian; CAKI-1 renal; NCI-H226 lung; TK-10 renal; KM12 colon; SK-MEL-5 melanoma.
Holding throughout (assay): inhibition of tumour cell growth, NCI panel, 48 h

Take `CCN(CC)CCCCCCCNc1c2ccc(Cl)cc2nc2ccc(OC)cc12`: the GI50 is 1.79 µM with HS 578T breast; 0.706 µM in the assay with U251 CNS; 0.829 µM in the assay on ACHN renal; 0.238 µM in the assay on SR leukemia; 0.498 µM in the assay with IGROV1 ovarian; 1.55 µM in the assay with CAKI-1 renal. Also, the GI50 in the assay with NCI-H226 lung is 1.83 µM; with TK-10 renal, 0.991 µM; in the assay with KM12 colon it was 0.649 µM; in the assay with SK-MEL-5 melanoma, 1.68 µM. Further, the TGI is 4.39 µM with HS 578T breast; 1.93 µM with U251 CNS; 4.93 µM in the assay with ACHN renal; 0.634 µM in the assay with SR leukemia; 1.65 µM in the assay on IGROV1 ovarian; 4.65 µM with CAKI-1 renal. Besides, the TGI came to 4.42 µM in the assay on NCI-H226 lung, 4.08 µM in the assay on TK-10 renal, 2.17 µM in the assay on KM12 colon and 3.09 µM with SK-MEL-5 melanoma.

As to `CCOC(=O)Oc1c(OC)cc(C(=O)O[C@@H]2C[C@@H]3CN4CCc5c([nH]c6cc(OC)ccc56)[C@H]4C[C@@H]3[C@H](C(=O)OC)[C@H]2OC)cc1OC`, the GI50 in the assay on HS 578T breast is 7.09 µM; with U251 CNS, 4.24 µM; in the assay with ACHN renal it was 4.16 µM; in the assay with SR leukemia, 3.61 µM; in the assay on IGROV1 ovarian it was 9.58 µM; in the assay on CAKI-1 renal, 13.9 µM. The GI50 in the assay on NCI-H226 lung was 15.1 µM; with TK-10 renal, 14.7 µM; in the assay on KM12 colon it was 4.7 µM; in the assay with SK-MEL-5 melanoma it was 7.86 µM. The TGI in the assay with HS 578T breast is 55.9 µM; in the assay on U251 CNS, 15.1 µM; with ACHN renal, 21.7 µM; in the assay with SR leukemia, greater than 100 µM; in the assay on IGROV1 ovarian it was 39.2 µM; with CAKI-1 renal, 48.1 µM. The TGI with NCI-H226 lung was found to be 58.1 µM; with TK-10 renal it was 42.5 µM; in the assay with KM12 colon, 17.7 µM; in the assay with SK-MEL-5 melanoma it was 20.7 µM.

For `O=C(CCCn1ccnc1[N+](=O)[O-])NCCn1ccnc1`, the TGI with HS 578T breast, with U251 CNS, with ACHN renal, with SR leukemia, in the assay with IGROV1 ovarian and in the assay with CAKI-1 renal was greater than 100 µM each time. Also, the TGI in the assay with NCI-H226 lung, in the assay on TK-10 renal, with KM12 colon and with SK-MEL-5 melanoma was greater than 100 µM each time.

On to `O=C1c2ccccc2-c2c1c1ccccc1c(=O)n2CCCN1CCOCC1`, for which the GI50 was 4.15 µM with HS 578T breast; 3.67 µM in the assay with U251 CNS; 10.7 µM in the assay with ACHN renal; 12.2 µM with SR leukemia; 8.36 µM in the assay with IGROV1 ovarian; 14 µM in the assay on CAKI-1 renal. Moreover, the GI50 is 26.4 µM with NCI-H226 lung, 12.1 µM with TK-10 renal, greater than 100 µM with KM12 colon and 12.3 µM in the assay on SK-MEL-5 melanoma. Further, the TGI with HS 578T breast is 14.8 µM; in the assay with U251 CNS, 14.9 µM; in the assay on ACHN renal it was 59.5 µM; with SR leukemia, greater than 100 µM; in the assay with IGROV1 ovarian, greater than 50.1 µM; with CAKI-1 renal, 30 µM. Besides, the TGI in the assay with NCI-H226 lung is 84.5 µM; in the assay on TK-10 renal it was 31.9 µM; with KM12 colon, greater than 100 µM; with SK-MEL-5 melanoma it was greater than 95 µM.

Take `Cc1ccc2c(=O)c3cccc(CC(=O)O)c3oc2c1C`: the GI50 in the assay on HS 578T breast, with U251 CNS, with ACHN renal, in the assay on SR leukemia, with IGROV1 ovarian and with CAKI-1 renal was greater than 100 µM each time. For the same molecule, the GI50 with NCI-H226 lung, in the assay on TK-10 renal, in the assay with KM12 colon and in the assay on SK-MEL-5 melanoma was greater than 100 µM throughout. For the same molecule, the TGI in the assay with HS 578T breast, in the assay on U251 CNS, with ACHN renal, in the assay on SR leukemia, in the assay with IGROV1 ovarian and with CAKI-1 renal was greater than 100 µM throughout. The TGI in the assay on NCI-H226 lung, with TK-10 renal, with KM12 colon and in the assay with SK-MEL-5 melanoma was greater than 100 µM throughout.

With `CCOC(CN=c1nc(N(C)C)ss1)OCC`, the TGI was greater than 82.5 µM with HS 578T breast; 29.9 µM with U251 CNS; 58.7 µM in the assay on ACHN renal; 12.2 µM in the assay with SR leukemia; greater than 100 µM in the assay with IGROV1 ovarian; 41.3 µM in the assay with CAKI-1 renal. Besides, the TGI in the assay on NCI-H226 lung is 36 µM; in the assay with TK-10 renal, 73.5 µM; in the assay with KM12 colon it was 38.9 µM; in the assay on SK-MEL-5 melanoma, greater than 100 µM.

`Cc1ccc2c(N)c(C(=O)N[C@H]3CCc4cc(N5CC6CCC(C5)N6)ccc4C3)sc2n1`: the GI50 in the assay with HS 578T breast was 0.58 µM; with U251 CNS, 0.311 µM; with ACHN renal it was 0.158 µM; in the assay on SR leukemia, 0.202 µM; in the assay with IGROV1 ovarian, 0.348 µM; in the assay on CAKI-1 renal, 0.357 µM. Moreover, the GI50 was 0.452 µM in the assay with NCI-H226 lung, 0.434 µM with TK-10 renal, 0.693 µM in the assay on KM12 colon and 0.569 µM in the assay with SK-MEL-5 melanoma. The TGI in the assay on HS 578T breast was found to be 2.44 µM; with U251 CNS it was 2.15 µM; in the assay with ACHN renal it was 2.01 µM; in the assay on SR leukemia it was 4.36 µM; in the assay on IGROV1 ovarian, 2.72 µM; in the assay on CAKI-1 renal, 2.96 µM. Also, the TGI with NCI-H226 lung stood at 2.58 µM; in the assay with TK-10 renal, 3.26 µM; in the assay with KM12 colon it was 3.33 µM; in the assay on SK-MEL-5 melanoma, 1.9 µM.
